Measured values taken from ChEMBL document CHEMBL1697781, “Assessment of the health effects of chemicals in humans: II. Construction of an adverse effects database for QSAR modeling” (Curr Drug Discov Technol, 2004).

system: Hepatotoxicity; experiment: FDA HLAED, liver enzyme composite activity; details: human

SMILES | Composite Activity - Active | Composite Activity - Marginal
NC12CC3CC(CC(C3)C1)C2 [AMANTADINE] | 0 | 0
CC(C)N(CCC(C(N)=O)(c1ccccc1)c1ccccn1)C(C)C (stereo not drawn) [DISOPYRAMIDE] | 0 | 0
C[C@@H]1C[C@H]2[C@@H]3CCC4=CC(=O)C=C[C@]4(C)[C@@]3(F)[C@@H](O)C[C@]2(C)[C@@]1(O)C(=O)CO [DEXAMETHASONE] | 0 | 0
CCC1(c2ccccc2)C(=O)NCNC1=O [PRIMIDONE] | 0 | 0
COc1cccc2c1C(=O)c1c(O)c3c(c(O)c1C2=O)C[C@@](O)(C(=O)CO)C[C@@H]3O[C@H]1C[C@H](N)[C@H](O)[C@H](C)O1 [DOXORUBICIN] | 0 | 0
COC(=O)Nc1nc2ccc(C(=O)c3ccccc3)cc2[nH]1 [MEBENDAZOLE] | 0 | 0
C=C[C@H]1C[N@@]2CC[C@H]1C[C@@H]2[C@@H](O)c1ccnc2ccc(OC)cc12 [QUINIDINE] | 0 | 0
OCCN1CCN(CCCN2c3ccccc3Sc3ccc(Cl)cc32)CC1 [PERPHENAZINE] | 0 | 0
CC(=O)S[C@@H]1CC2=CC(=O)CC[C@]2(C)[C@H]2CC[C@@]3(C)[C@@H](CC[C@@]34CCC(=O)O4)[C@H]12 [SPIRONOLACTONE] | 0 | 0
CC(=O)OCC(=O)[C@@]1(O)[C@@H](C)C[C@H]2[C@@H]3CCC4=CC(=O)C=C[C@]4(C)[C@@]3(F)[C@@H](O)C[C@@]21C [BETAMETHASONE ACETATE] | 0 | 0
CC(=O)O.C[C@H]1C[C@@H]2[C@H]([C@@H](O)C[C@@]3(C)[C@H]2CC[C@]3(O)C(=O)CO)[C@@]2(C)C=CC(=O)C=C12 | 0 | 0
OCCOCCN1CCN(C(c2ccccc2)c2ccc(Cl)cc2)CC1 (stereo not drawn) [HYDROXYZINE] | 0 | 0
C[C@H]1C[C@@H]2[C@H]([C@@H](O)C[C@@]3(C)[C@H]2CC[C@]3(O)C(=O)COC(=O)CCCCCCC(=O)N(C)CCS(=O)(=O)O)[C@@]2(C)C=CC(=O)C=C12 [METHYLPREDNISOLONE 21-SULEPTANIC ACID ESTER] | 0 | 0
CN(C)CCC=C1c2ccccc2CCc2ccccc21 [AMITRIPTYLINE] | 0 | 0
C[C@H]1C[C@H]2[C@@H]3CCC4=CC(=O)C=C[C@]4(C)[C@@]3(F)[C@@H](O)C[C@]2(C)[C@@]1(O)C(=O)CO [BETAMETHASONE] | 0 | 0
CCCCCCCCCC(=O)OCCN1CCN(CCCN2c3ccccc3Sc3ccc(C(F)(F)F)cc32)CC1 [FLUPHENAZINE DECANOATE] | 0 | 0
CC(C)(S)[C@@H](N)C(=O)O [PENICILLAMINE] | 0 | 0
CCC(=O)OCC(=O)[C@@]1(OC(=O)CC)[C@H](C)C[C@H]2[C@@H]3CCC4=CC(=O)C=C[C@]4(C)[C@@]3(F)[C@@H](O)C[C@@]21C [DEXAMETHASONE DIPROPIONATE] | 0 | 0
CCCCC(=O)O[C@]1(C(=O)CO)[C@@H](C)C[C@H]2[C@@H]3CCC4=CC(=O)C=C[C@]4(C)[C@@]3(F)[C@@H](O)C[C@@]21C [BETAMETHASONE VALERATE] | 0 | 0
Nc1nc(=O)[nH]cc1F [FLUCYTOSINE] | 0 | 0
NC(=O)NO [HYDROXYUREA] | 0 | 0
CCNC(C)Cc1cccc(C(F)(F)F)c1 (stereo not drawn) [FENFLURAMINE] | 0 | 0

SMILES | Composite Activity - Active | Composite Activity - Marginal
C[C@H]1C[C@@H]2[C@H]([C@@H](O)C[C@@]3(C)[C@H]2CC[C@]3(O)C(=O)CO)[C@@]2(C)C=CC(=O)C=C12 [METHYLPREDNISOLONE] | 0 | 0
NC[C@H]1O[C@H](O[C@H]2[C@H](O)[C@@H](O[C@H]3O[C@H](CO)[C@@H](O)[C@H](N)[C@H]3O)[C@H](N)C[C@@H]2N)[C@H](N)C[C@@H]1O [TOBRAMYCIN] | 0 | 0
CNNCc1ccc(C(=O)NC(C)C)cc1 [PROCARBAZINE] | 0 | 0
C[C@](N)(Cc1ccc(O)c(O)c1)C(=O)O [METHYLDOPA] | 0 | 0
NCCCCCC(=O)O [AMINOCAPROIC ACID] | 0 | 0
O=C1CN(/N=C/c2ccc(-c3ccc([N+](=O)[O-])cc3)o2)C(O)=N1 [DANTROLENE] | 0 | 0
S=P(N1CC1)(N1CC1)N1CC1 [THIOTEPA] | 0 | 0
CC[C@]1(O)C[C@H]2CN(CCc3c([nH]c4ccccc34)[C@@](C(=O)OC)(c3cc4c(cc3OC)N(C=O)[C@H]3[C@@](O)(C(=O)OC)[C@H](OC(C)=O)[C@]5(CC)C=CCN6CC[C@]43[C@@H]65)C2)C1 [VINCRISTINE] | 0 | 0
NS(=O)(=O)c1cc2c(cc1Cl)NCNS2(=O)=O [HYDROCHLOROTHIAZIDE] | 0 | 0
OCCN1CCN(CCCN2c3ccccc3Sc3ccc(C(F)(F)F)cc32)CC1 [FLUPHENAZINE] | 0 | 0
CC(=O)Oc1ccccc1C(=O)O [ASPIRIN] | 0 | 0
CC(=O)OCC(=O)[C@@]1(OC(=O)C(C)C)[C@@H](C)C[C@H]2[C@@H]3CCC4=CC(=O)C=C[C@]4(C)[C@@]3(F)[C@@H](O)C[C@@]21C [BETAMETHASONE ACIBUTATE] | 0 | 0
CCCN(CCC)S(=O)(=O)c1ccc(C(=O)O)cc1 [PROBENECID] | 0 | 0
CS(=O)(=O)OCCCCOS(C)(=O)=O [BUSULFAN] | 0 | 0
FC(F)OC(F)(F)C(F)Cl (stereo not drawn) | 0 | 0
CCCC(=O)O[C@]1(C(=O)COC(=O)CC)[C@@H](C)C[C@H]2[C@@H]3CCC4=CC(=O)C=C[C@]4(C)[C@@]3(F)[C@@H](O)C[C@@]21C [BETAMETHASONE BUTYRATE PROPIONATE] | 0 | 0
C[C@H]1C[C@@H]2[C@H]([C@@H](O)C[C@@]3(C)[C@H]2CC[C@]3(O)C(=O)COC(=O)CCC(=O)O)[C@@]2(C)C=CC(=O)C=C12 [METHYLPREDNISOLONE HEMISUCCINATE] | 0 | 0
C[C@@H]1[C@H](O)[C@@H](C)/C=C/C=C/C=C/C=C/C=C/C=C/C=C/[C@H](O[C@@H]2O[C@H](C)[C@@H](O)[C@H](N)[C@@H]2O)C[C@@H]2O[C@](O)(C[C@@H](O)C[C@@H](O)[C@H](O)CC[C@@H](O)C[C@@H](O)CC(=O)O[C@H]1C)C[C@H](O)[C@H]2C(=O)O [AMPHOTERICIN B] | 0 | 0
CN(C)[C@@H]1C(O)=C(C(N)=O)C(=O)[C@@]2(O)C(O)=C3C(=O)c4c(O)cccc4[C@@](C)(O)[C@H]3C[C@@H]12 [TETRACYCLINE] | 0 | 0
C[C@H]1C[C@H]2[C@@H]3CCC4=CC(=O)C=C[C@]4(C)[C@@]3(F)[C@@H](O)C[C@]2(C)[C@@]1(OC(=O)c1ccccc1)C(=O)CO [BETAMETHASONE BENZOATE] | 0 | 0
COc1cc2nc(N3CCN(C(=O)c4ccco4)CC3)nc(N)c2cc1OC [PRAZOSIN] | 0 | 0

same assay, conditions: human, Liver

SMILES | Composite Activity - Active | Composite Activity - Marginal
O=C1NC(=O)C(c2ccccc2)(c2ccccc2)N1 [PHENYTOIN] | 0 | 0
CN1C(=O)CN=C(c2ccccc2)c2cc(Cl)ccc21 [DIAZEPAM] | 0 | 0
CCCc1cc(=O)[nH]c(=S)[nH]1 [PROPYLTHIOURACIL] | 0 | 0
CCc1cc(C(N)=S)ccn1 [ETHIONAMIDE] | 0 | 0
CN(C)CCC=C1c2ccccc2C=Cc2ccccc21 [CYCLOBENZAPRINE] | 0 | 0
Nc1ccc(S(=O)(=O)Nc2ncccn2)cc1 [SULFADIAZINE] | 0 | 0
